Assay results reported in patent US8901317B2, “Tryptamine derivatives, their preparation and their use in gastropathy” (Council of Scientific & Industrial Research, priority 2010, dated 2014).

Legend:
[1] = test system: primary cultured gastric epithelial cells; assay: TUNEL assay in cultured gastric mucosal cells; format: cell-based, rat; settings: in vitro cultured gastric mucosa
Protocol: Gastric mucosal cells were isolated and cultured as described earlier (Pal, C; et al. Free Radic Biol Med, 49(2), 258-267; 2010) with slight modification. Mucosa from rat stomach was scraped into HBSS (pH 7.4) containing 100 U/ml penicillin and 100-μg/ml streptomycin. The mucosa was then minced and suspended in HBSS (pH 7.4), containing 0.05% hyaluronidase and 0.1% collagenase type I. The suspension was incubated for 30 min at 37° C. in 5% CO2 environment with shaking and then filtered through a sterile nylon mess. The filtrate was centrifuged at 600×g for 5 min, the cell pellet was washed with HBSS (pH 7.4) and further centrifuged. The pellet was incubated in 5 ml of Hans F-12 media in T25 flask supplemented with 10% fetal bovine serum (FBS) and 100 U/ml penicillin, 100-μg/ml streptomycin and gentamycin. Cells were cultured at 37° C. with 5% CO2 and grown to ˜90% confluence before treatment.

[2] = test system: indomethacin-induced gastric mucosal injury; assay: Healing effect on indomethacin-induced gastric damage; format: in vivo, Sprague-Dwaley rats; settings: 50 mg kg^−1 i.p. 4 hrs after indomethacin 48 mg kg^−1
Protocol: Gastric mucosal injury was first induced with indomethacin treatment at a dose of 48 mg kg^−1. After 4 hrs of the induction of mucosal injury, some of the animals were divided into two different groups (n=6), i.e., auto healing and SEGA-induced healing. This time point was referred as ‘0’ hr of healing. At this point of time, in the SEGA-induced healing group, SEGA was administered (i.p) at the dose of 50 mg kg^−1 (this dose was selected from the dose-response curve). The animals, which were not treated with SEGA and received only indomethacin, served as the auto healing group. Starting from 0 hr, the stomach was dissected out from all groups at the intervals of 2 hrs, 4 hrs and 8 hrs respectively for measuring ulcer index as described (Maity, P.; et al. J. Biol. Chem. 283:14391-14401; 2008) and histological studies.

Q: With O=C(NCCc1c[nH]c2ccc(O)cc12)c1cc(O)c(O)c(O)c1 [Compound 3a, 3,4,5-trihydroxy-N-(2-(5-hydroxy-1H-indol-3-yl)ethyl)benzamide] as the compound, how does the “indomethacin-induced apoptosis (TUNEL) in vitro” value [1] read?
A: prevents the indomethcin-induced apoptosis

Q: What about the “healing of already damaged gastric mucosa (ulcer index)” value [2] of the same compound?
A: accelerates the healing process
